pKi: −log10 of the molar value.
What was measured:
[1] = target: C-X-C chemokine receptor type 4 (Homo sapiens, UniProt P61073); test: Antagonist activity at human wild type CXCR4 expressed in COS7 cells coexpressing G protein Gqi4myr assessed as inhibition of CXCL12-induced phosphatidylinositol turnover; type: functional, cell-based, COS-7; settings: for logIC50: COS-7
[2] = system: C-X-C chemokine receptor type 4 (Homo sapiens), P61073 [H113A]; test: (§1) Antagonist activity at human CXCR4 H113A mutant expressed in COS7 cells coexpressing G protein Gqi4myr assessed as inhibition of CXCL12-induced phosphatidylinositol turnover; type: functional, cell-based; settings: COS-7
[3] = target: C-X-C chemokine receptor type 4 (Homo sapiens, UniProt P61073, H113A); test: as §1; type: functional, cell-based, COS-7
[4] = system: C-X-C chemokine receptor type 4 (Homo sapiens), P61073 [L120F]; test: (§2) Antagonist activity at human CXCR4 L120F mutant expressed in COS7 cells coexpressing G protein Gqi4myr assessed as inhibition of CXCL12-induced phosphatidylinositol turnover; type: functional, cell-based; settings: COS-7
[5] = target: C-X-C chemokine receptor type 4 (Homo sapiens, UniProt P61073, L120F); test: as §2; type: functional, cell-based, COS-7
[6] = system: C-X-C chemokine receptor type 4 (Homo sapiens), P61073 [D171N]; test: (§3) Antagonist activity at human CXCR4 D171N mutant expressed in COS7 cells coexpressing G protein Gqi4myr assessed as inhibition of CXCL12-induced phosphatidylinositol turnover; type: functional, cell-based; settings: COS-7
[7] = target: C-X-C chemokine receptor type 4 (Homo sapiens, UniProt P61073, D171N); test: as §3; type: functional, cell-based, COS-7
[8] = system: C-X-C chemokine receptor type 4 (Homo sapiens), P61073 [F172A]; test: (§4) Antagonist activity at human CXCR4 F172A mutant expressed in COS7 cells coexpressing G protein Gqi4myr assessed as inhibition of CXCL12-induced phosphatidylinositol turnover; type: functional, cell-based; settings: COS-7
Sequence of C-X-C chemokine receptor type 4 (Homo sapiens), P61073 [F172A] (P61073 whole entry F172A): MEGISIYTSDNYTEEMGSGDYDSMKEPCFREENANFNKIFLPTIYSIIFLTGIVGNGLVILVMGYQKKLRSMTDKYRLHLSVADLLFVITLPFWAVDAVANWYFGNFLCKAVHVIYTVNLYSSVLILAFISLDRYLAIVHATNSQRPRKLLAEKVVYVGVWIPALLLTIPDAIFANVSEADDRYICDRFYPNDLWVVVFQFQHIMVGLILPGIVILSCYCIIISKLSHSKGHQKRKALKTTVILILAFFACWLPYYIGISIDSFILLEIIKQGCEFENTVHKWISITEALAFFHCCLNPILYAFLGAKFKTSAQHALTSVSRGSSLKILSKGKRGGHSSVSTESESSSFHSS

[9] = target: C-X-C chemokine receptor type 4 (Homo sapiens, UniProt P61073, F172A); test: as §4; type: functional, cell-based, COS-7
Sequence of C-X-C chemokine receptor type 4 (Homo sapiens, UniProt P61073, F172A) (P61073 whole entry F172A): as above

[10] = system: C-X-C chemokine receptor type 4 (Homo sapiens), P61073 [A175F]; test: (§5) Antagonist activity at human CXCR4 A175F mutant expressed in COS7 cells coexpressing G protein Gqi4myr assessed as inhibition of CXCL12-induced phosphatidylinositol turnover; type: functional, cell-based; settings: COS-7
Sequence of C-X-C chemokine receptor type 4 (Homo sapiens), P61073 [A175F] (P61073 whole entry A175F): as the sequence (P61073 whole entry F172A) above, with A172F, A175F counted along it

[11] = target: C-X-C chemokine receptor type 4 (Homo sapiens, UniProt P61073, A175F); test: as §5; type: functional, cell-based, COS-7
Sequence of C-X-C chemokine receptor type 4 (Homo sapiens, UniProt P61073, A175F) (P61073 whole entry A175F): as the sequence (P61073 whole entry F172A) above, with A172F, A175F counted along it

[12] = system: C-X-C chemokine receptor type 4 (Homo sapiens), P61073 [V196A]; test: (§6) Antagonist activity at human CXCR4 V196A mutant expressed in COS7 cells coexpressing G protein Gqi4myr assessed as inhibition of CXCL12-induced phosphatidylinositol turnover; type: functional, cell-based; settings: COS-7
[13] = target: C-X-C chemokine receptor type 4 (Homo sapiens, UniProt P61073, V196A); test: as §6; type: functional, cell-based, COS-7
[14] = system: C-X-C chemokine receptor type 4 (Homo sapiens), P61073 [Q200W]; test: (§7) Antagonist activity at human CXCR4 Q200W mutant expressed in COS7 cells coexpressing G protein Gqi4myr assessed as inhibition of CXCL12-induced phosphatidylinositol turnover; type: functional, cell-based; settings: COS-7
Sequence of C-X-C chemokine receptor type 4 (Homo sapiens), P61073 [Q200W] (P61073 whole entry Q200W): as the sequence (P61073 whole entry F172A) above, with A172F, Q200W counted along it

[15] = target: C-X-C chemokine receptor type 4 (Homo sapiens, UniProt P61073, Q200W); test: as §7; type: functional, cell-based, COS-7
Sequence of C-X-C chemokine receptor type 4 (Homo sapiens, UniProt P61073, Q200W) (P61073 whole entry Q200W): as the sequence (P61073 whole entry F172A) above, with A172F, Q200W counted along it

[16] = system: C-X-C chemokine receptor type 4 (Homo sapiens), P61073 [Q200A]; test: (§8) Antagonist activity at human CXCR4 Q200A mutant expressed in COS7 cells coexpressing G protein Gqi4myr assessed as inhibition of CXCL12-induced phosphatidylinositol turnover; type: functional, cell-based; settings: COS-7
[17] = target: C-X-C chemokine receptor type 4 (Homo sapiens, UniProt P61073, Q200A); test: as §8; type: functional, cell-based, COS-7
[18] = system: C-X-C chemokine receptor type 4 (Homo sapiens), P61073 [H203A]; test: (§9) Antagonist activity at human CXCR4 H203A mutant expressed in COS7 cells coexpressing G protein Gqi4myr assessed as inhibition of CXCL12-induced phosphatidylinositol turnover; type: functional, cell-based; settings: COS-7
Sequence of C-X-C chemokine receptor type 4 (Homo sapiens), P61073 [H203A] (P61073 whole entry H203A): as the sequence (P61073 whole entry F172A) above, with A172F, H203A counted along it

[19] = target: C-X-C chemokine receptor type 4 (Homo sapiens, UniProt P61073, H203A); test: as §9; type: functional, cell-based, COS-7
Sequence of C-X-C chemokine receptor type 4 (Homo sapiens, UniProt P61073, H203A) (P61073 whole entry H203A): as the sequence (P61073 whole entry F172A) above, with A172F, H203A counted along it

[20] = system: C-X-C chemokine receptor type 4 (Homo sapiens), P61073 [Y255A]; test: (§10) Antagonist activity at human CXCR4 Y255A mutant expressed in COS7 cells coexpressing G protein Gqi4myr assessed as inhibition of CXCL12-induced phosphatidylinositol turnover; type: functional, cell-based; settings: COS-7
[21] = target: C-X-C chemokine receptor type 4 (Homo sapiens, UniProt P61073, Y255A); test: as §10; type: functional, cell-based, COS-7
[22] = system: C-X-C chemokine receptor type 4 (Homo sapiens), P61073 [I259A]; test: (§11) Antagonist activity at transmembrane domain 6 of human CXCR4 I259A mutant expressed in COS7 cells coexpressing G protein Gqi4myr assessed as inhibition of CXCL12-induced phosphatidylinositol turnover; type: functional, cell-based; settings: COS-7
Sequence of C-X-C chemokine receptor type 4 (Homo sapiens), P61073 [I259A] (P61073 whole entry I259A, the tested form may be a part): as the sequence (P61073 whole entry F172A) above, with A172F, I259A counted along it

[23] = target: C-X-C chemokine receptor type 4 (Homo sapiens, UniProt P61073, I259A); test: as §11; type: functional, cell-based, COS-7
Sequence of C-X-C chemokine receptor type 4 (Homo sapiens, UniProt P61073, I259A) (P61073 whole entry I259A): as the sequence (P61073 whole entry F172A) above, with A172F, I259A counted along it

[24] = system: C-X-C chemokine receptor type 4 (Homo sapiens), P61073 [I259W]; test: (§12) Antagonist activity at human CXCR4 I259W mutant expressed in COS7 cells coexpressing G protein Gqi4myr assessed as inhibition of CXCL12-induced phosphatidylinositol turnover; type: functional, cell-based; settings: COS-7
[25] = target: C-X-C chemokine receptor type 4 (Homo sapiens, UniProt P61073, I259W); test: as §12; type: functional, cell-based, COS-7
[26] = system: C-X-C chemokine receptor type 4 (Homo sapiens), P61073 [D262N]; test: (§13) Antagonist activity at human CXCR4 D262N mutant expressed in COS7 cells coexpressing G protein Gqi4myr assessed as inhibition of CXCL12-induced phosphatidylinositol turnover; type: functional, cell-based; settings: COS-7
[27] = target: C-X-C chemokine receptor type 4 (Homo sapiens, UniProt P61073, D262N); test: as §13; type: functional, cell-based, COS-7
[28] = system: C-X-C chemokine receptor type 4 (Homo sapiens), P61073 [H281A]; test: (§14) Antagonist activity at human CXCR4 H281A mutant expressed in COS7 cells coexpressing G protein Gqi4myr assessed as inhibition of CXCL12-induced phosphatidylinositol turnover; type: functional, cell-based; settings: COS-7
[29] = target: C-X-C chemokine receptor type 4 (Homo sapiens, UniProt P61073, H281A); test: as §14; type: functional, cell-based, COS-7
[30] = system: C-X-C chemokine receptor type 4 (Homo sapiens), P61073 [I284A]; test: (§15) Antagonist activity at human CXCR4 I284A mutant expressed in COS7 cells coexpressing G protein Gqi4myr assessed as inhibition of CXCL12-induced phosphatidylinositol turnover; type: functional, cell-based; settings: COS-7
Sequence of C-X-C chemokine receptor type 4 (Homo sapiens), P61073 [I284A] (P61073 whole entry I284A): as the sequence (P61073 whole entry F172A) above, with A172F, I284A counted along it

[31] = target: C-X-C chemokine receptor type 4 (Homo sapiens, UniProt P61073, I284A); test: as §15; type: functional, cell-based, COS-7
Sequence of C-X-C chemokine receptor type 4 (Homo sapiens, UniProt P61073, I284A) (P61073 whole entry I284A): as the sequence (P61073 whole entry F172A) above, with A172F, I284A counted along it

[32] = system: C-X-C chemokine receptor type 4 (Homo sapiens), P61073 [T287A]; test: (§16) Antagonist activity at human CXCR4 T287A mutant expressed in COS7 cells coexpressing G protein Gqi4myr assessed as inhibition of CXCL12-induced phosphatidylinositol turnover; type: functional, cell-based; settings: COS-7
[33] = target: C-X-C chemokine receptor type 4 (Homo sapiens, UniProt P61073, T287A); test: as §16; type: functional, cell-based, COS-7
[34] = system: C-X-C chemokine receptor type 4 (Homo sapiens), P61073 [E288A]; test: (§17) Antagonist activity at human CXCR4 E288A mutant expressed in COS7 cells coexpressing G protein Gqi4myr assessed as inhibition of CXCL12-induced phosphatidylinositol turnover; type: functional, cell-based; settings: COS-7
[35] = target: C-X-C chemokine receptor type 4 (Homo sapiens, UniProt P61073, E288A); test: as §17; type: functional, cell-based, COS-7

Sequence of C-X-C chemokine receptor type 4 (Homo sapiens, UniProt P61073) (P61073 whole entry): as the sequence (P61073 whole entry F172A) above, with A172F counted along it

| SMILES | pKi [1] | logIC50 [1] | logIC50 [2] | pKi [3] | logIC50 [4] | pKi [5] | logIC50 [6] | pKi [7] | logIC50 [8] | pKi [9] | logIC50 [10] | pKi [11] | logIC50 [12] | pKi [13] | logIC50 [14] | pKi [15] | logIC50 [16] | pKi [17] | logIC50 [18] | pKi [19] | further results |
| --- | --- | --- | --- | --- | --- | --- | --- | --- | --- | --- | --- | --- | --- | --- | --- | --- | --- | --- | --- | --- | --- |
| Cc1ccc(CN2CCCNCCNCCCNCC2)cc1 | 4.70 | -4.69 | -3.56 | 3.56 | -4.87 | 4.89 | -3.97 | 3.97 | -4.82 | 4.82 | -2.65 | 2.65 | -4.56 | 4.55 | -4.22 | 4.22 | -4.1 | 4.10 | -4.5 | 4.49 | logIC50 [20]: -4.43; pKi [21]: 4.43; logIC50 [22]: -5.6; pKi [23]: 5.60; logIC50 [24]: -4.62; pKi [25]: 4.62; logIC50 [26]: -5.54; pKi [27]: 5.54; logIC50 [28]: -4.66; pKi [29]: 4.66; logIC50 [30]: -5.64; pKi [31]: 5.64; logIC50 [32]: -5.49; pKi [33]: 5.48; logIC50 [34]: -3.52; pKi [35]: 3.52 |
| c1ccc(CNCc2ccc(CN3CCCNCCNCCCNCC3)cc2)cc1 | 5.77 | -5.76 | -4.74 | 4.74 | -6.36 | 6.36 | -4.85 | 4.85 | -5.92 | 6.77 | -3.89 | 3.89 | -5.88 | 5.89 | -5.14 | 5.14 | -4.91 | 4.92 | -5.14 | 5.14 | logIC50 [20]: -5.05; pKi [21]: 5.06; logIC50 [22]: -6.04; pKi [23]: 6.04; logIC50 [24]: -5.5; pKi [25]: 5.51; logIC50 [26]: -5.64; pKi [27]: 5.64; logIC50 [28]: -5.75; pKi [29]: 5.74; logIC50 [30]: -6.38; pKi [31]: 6.38; logIC50 [32]: -6.46; pKi [33]: 6.47; logIC50 [34]: -4.96; pKi [35]: 4.96 |
